From patent US20090170949A1, “Method To Control Body Weight” (priority 2006, published 2009)

Columns and labels:
[1] = Triglycerides in blood plasma of obese marmosets treated with coated lactisole pills; format: in vivo, common marmoset monkeys (Callithrix jacchus); parameters: Triglycerides in blood plasma: unit not given here
Procedure: 5 mm diameter coated pill were made, comprising 20 mg tablettose, 26.5 mg Avicell PH 102, 2.5 mg Crospovidone and 1 mg Mg-stearate for the placebo, and 35 mg sodium 2-(4-methoxyphenoxy)propionate (Endeavour speciality chemicals), 11.5 mg Avicel PH 102, 2.5 mg Crospovidone and 1 mg Mg-stearate for the Lactisole pills. Pills were coated in a fluidized bed (GCPG1, Glatt), at a spray rate of 4 g/min, atomic pressure 1.5 bar, inlet air temperature 36° C., product temperature 31° C. at maximal air velocity. The composition of the coating solution was 11.4% Eudragit® EPO(Röhm Pharma), 1.14% Sodium lauryl sulphate (α-pharma), 4% Mg-stearate (α-pharma), 1.72% stearic acid (α-pharma) and water ad 100%.
Adult male and female common marmoset monkeys (Callithrix jacchus) were from the breeding colony of the German Primate Center (DPZ), Göttingen, Germany. Animals were housed in pairs in air-conditioned facilities on a 12 hr/12: HR light/dark cycle.
Animals were fed two times a day: mash feeding, containing 15 g of test diet in the morning, and 60 g of test diet in the afternoon (value per animal). Each time before feeding, the animals received two pills (either placebo or lactisole) in nutrical gel.
Three groups of marmosets were compared: 11 obese animals treated with lactisole, 11 obese animals receiving placebo and 12 lean control animals receiving placebo. The experiment is carried out for 10 weeks, and bodyweight, glycated hemoglobin HbA1c, and glucose in blood plasma is measured. […]
Obese animals were treated for 7 weeks with lactisole (70 mg, two times a day, before feeding). Control obese and lean animals received placebo pills.

[2] = rats, high lactisole concentrations added to the diet; considered statistically insignificant; cited from earlier work
[3] = Effect of lactisole on body weight (applicant's general finding); format: in vivo; conditions: also when encapsulated and/or coated to avoid contact with the taste receptor of the mouth
SGLT1 [4] = test: SGLT1 expression in α-gustducin knock-out mice on low carbohydrate plus sucralose diet; format: in vivo, mouse; conditions: α-gustducin KO mice, 2 weeks
Procedure: (§1) Male CD-1 and C57BL/6 mice, six weeks old, from Charles River Laboratories were used. The α-gustducin knock out mouse was described by Wong et al. (1996); the T1R3 knock out mouse was described by Damak et al. 2003).
(§2) High and low carbohydrate diets were resp. TestDiet® 5810 and TestDiet® 5787-9. For the sucralose test, the low carbohydrate diet was supplemented with sucralose (1,6-dichloro-1,6-dideoxy-beta-D-fructofuranosyl-4-chloro-4-deoxy-alpha-galactopyranoside) at 2 mM.
(§3) Animals were killed by concussion followed by cervical dislocation. The entire small intestine was removed and flushed with ice-cold 0.9% NaCl, opened longitudinally, rinsed in saline and mucous removed by blotting. The small intestine was then divided into proximal, mid and distal sections and the mucosa removed by scraping. Mucosal scrapings were frozen immediately in liquid nitrogen and stored at −80° C. until use. […]
(§4) Second, groups of wild-type and T1R3 and α-gustducin KO mice were placed on each of three iso-caloric diets a) low carbohydrate, b) high carbohydrate, and c) low carbohydrate+artificial sweetener (sucralose), for two weeks. After this time the mice were killed and the small intestines were removed, divided into proximal, mid and distal regions, and SGLT1 expression, at protein and mRNA levels, were measured in each.

[5] = Body weight gain and food intake of mice on low carbohydrate diet with or without sucralose; format: in vivo, mice (C57BL/6); conditions: C57BL/6 mice, low carbohydrate diet with 0.3% sucralose, ad libitum, 12 weeks
Excerpt: induction of weight increase in mice by the use of an artificial sweetener Two groups of mice (C57BL/6) were fed ad libitum with a low carbohydrate diet (1.9% remaining carbohydrate, Purina), with or without 0.3% sucralose (Tate and Lyle). Food consumption and body weight was followed for a period of 12 weeks.

[6] = male and female dogs, diet with various concentrations of sucralose; cited from earlier work
SGLT1 [7] = test: SGLT1 expression in T1R3 knock-out mice on low carbohydrate plus sucralose diet; format: in vivo, mouse; conditions: T1R3 KO mice, 2 weeks
Procedure: as §1, §2, §3, §4

SGLT1 [8] = test: SGLT1 protein expression (western blot of luminal membrane vesicles) in wild-type mice on low carbohydrate plus sucralose diet; format: in vivo, mouse; conditions: 2 weeks
Procedure: as §1, §2, §3, §4

SGLT1 [9] = test: SGLT1 mRNA levels (real-time PCR) in small intestine of wild-type mice on low carbohydrate plus sucralose diet; format: in vivo, mouse; conditions: proximal and mid intestinal regions, sucralose (2 mM) added to low carbohydrate diet, 2 weeks, qPCR
Procedure: as §1, §2, §3, §4

| Compound | Triglycerides in blood plasma ([1]; obese marmosets N = 11, high carb feeding week 0, week −4 with respect to lactisole treatment (before treatment)) | Triglycerides in blood plasma ([1]; obese marmosets N = 11, high carb feeding week 3, week −1 with respect to lactisole treatment (before treatment)) | Triglycerides in blood plasma ([1]; obese marmosets N = 11, high carb feeding week 5, week 1 of lactisole treatment, 70 mg two times a day) | Triglycerides in blood plasma ([1]; obese marmosets N = 11, high carb feeding week 7, week 3 of lactisole treatment, 70 mg two times a day) | Triglycerides in blood plasma ([1]; obese marmosets N = 11, high carb feeding week 9, week 5 of lactisole treatment, 70 mg two times a day) | Triglycerides in blood plasma ([1]; obese marmosets N = 11, high carb feeding week 11, week 7 of lactisole treatment, 70 mg two times a day) | serum triglyceride level, course in treated obese animals ([1]; obese marmosets, 7 weeks lactisole 70 mg two times a day before feeding) | body-weight gain [2] | effect on body weight [3] | SGLT1 mRNA response (SGLT1 [4]) | SGLT1 protein response (SGLT1 [4]) | average increase in body weight gain versus control group [5] [%] | food intake higher than control group [5] [%] | body weight gain and final body weight [6] | SGLT1 mRNA response (SGLT1 [7]) | SGLT1 protein response (SGLT1 [7]) | SGLT1 protein expression (SGLT1 [8]) | increase of SGLT1 mRNA (SGLT1 [9]) |
| --- | --- | --- | --- | --- | --- | --- | --- | --- | --- | --- | --- | --- | --- | --- | --- | --- | --- | --- |
| COc1ccc(OC(C)C(=O)O)cc1 (stereo not drawn) [Lactisole, sodium 2-(4-methoxyphenoxy) propanoate] | 2.75 | 2.24 | 1.82 | 1.85 | 1.57 | 1.52 | decreasing to the level of the lean control | reduction in body-weight gain | body weight loss |  |  |  |  |  |  |  |  |  |
| OC[C@H]1O[C@H](O[C@]2(CCl)O[C@H](CCl)[C@@H](O)[C@@H]2O)[C@H](O)[C@@H](O)[C@H]1Cl [sucralose, 1,6-dichloro-1,6-dideoxy-beta-D-fructofuranosyl-4-chloro-4-deoxy-alpha-galactopyranoside] |  |  |  |  |  |  |  |  |  | no increase | no increase | 42 | 7.5 | gaining more rapidly body weight and reached a higher final body weight level | no increase | no increase | increased | 30-70% |
